Experimental data published in US9561234B2, “Methods for treating diseases of the retina” (Allergan, Inc., priority 2010, dated 2017).
Entries after “also recorded” stand apart in the source; their conditions may differ.

How the values were obtained:
[1] = tested on: laser induced choroidal neovascularization in rats; test: Choroidal neovascularization (CNV) assay, laser induced; format: in vivo, Brown Norway rats; conditions: i.p. 1 mg/kg once a day for 3 days plus intravitreal day 1, 4 & 6; 11 days after laser; FIG. 11
Protocol: Brown Norway rats (Charles Rivers), weighing 250-300 grams each were used in the study. Drug treatment was started 2 days prior to Laser treatment. Olanzapine was given i.p. (1 mg/kg) once a day for 3 days (day −2, −1 & 0). The last dose on day 0 was delivered about 1 hr before laser treatment. Phosphate buffered saline (PBS) was used for parallel control vehicle IP injection. On day zero of the laser procedure, rat eyes (pupil) were dilated with Tropicamide HCl HCl (1%) and Ak-dilate (10%). Rats were then anesthetized with intramuscular injection of 40 mg/ml Ketamine HCL and 12 mg/ml Xylazine HCl. The fundo's was visualized using a microscope slide coverslip with Refresh Liquigel eye drops as an optical coupling agent. For each animal, 6 laser spots in each eye (360 mW power, 0.07 sec. duration, 50 μm spot size) were made with argon laser (Coherent Inc.; Santa Clara, Ca.) concentrically at approximately equal distances around the optic disc, between every 2 retinal vessels. A single 5-ul volume of the drug (olanzapine) or PBS was injected into the vitreous cavity at day 1, 4 & 6 post-laser photocoagulation procedure. At 11 days after laser treatment, animals were sacrificed by CO2 exposure and CNV formation was assayed as described previously. […] The area of fluorescence was quantified using Metamorph image analysis software (RPI, Natick, Mass.).

[2] = tested on: C57B6 mice with oxygen-induced retinopathy; test: Oxygen-induced retinopathy (hyperoxia): retinal neovascularization; format: in vivo; conditions: gavage once daily P10 through P16; evaluated on P17; FIG. 10
Protocol: Litters of newborn mice and their dams were placed in a 75% oxygen chamber from P7 to P12. The chamber contained enough food and water for 5 days and was opened only to allow drug administration to the animals. The mice were returned to room air with normal oxygen content on P12. Olanzapine in water or VEH (water) was administered once daily by gavage beginning on P10 and continuing through P16. Retinal neovascularization was evaluated on P17 after 5 days of exposure of the animals to room air. Error bars, SEM.
Oxygen-induced retinopathy (OIR)/Hyperoxia was induced in C57B6 mice using the protocol reported by Smith et al. (Smith L E, Wesolowski E, McLellan A, et al. Oxygen-induced retinopathy in the mouse. Invest Ophthalmol Vis Sci. 1994; 35(1):101-111). […] Retinal neovascularization was evaluated on P17 after 5 days of exposure of the animals to room air.
Retinal neovascularization was evaluated by angiography in mice subjected to OIR as described previously (Smith L E, Wesolowski E, McLellan A, et al. Oxygen-induced retinopathy in the mouse. Invest Ophthalmol Vis Sci. 1994; 35(1):101-111). […] Quantification of retinal neovascularization was performed as described previously (Chen J, Connor K M, Aderman C M, Smith L E. Erythropoietin deficiency decreases vascular stability in mice. J Clin Invest. 2008; 118(2):526-533). […]

blue light exposed rats [3] = test: Electroretinography (ERG) assay after blue light exposure; format: in vivo, Sprague-Dawley (SD) rats
Protocol: (§1) Four to five month old Sprague-Dawley (SD) male rats were used in the following study. Drug treatment was started 2 days before blue light exposure. Animals received olanzapine IP injection once per day for 3 days and the last dosing was 1 hour before blue light exposure.
(§2) For intravitreal injection (IVT), animals received olanzapine (having the structure shown below) 1 hour before blue light exposure. For topical administration, the drug was given 24 hours (BID) and one hour (QI) before blue light exposure. Water was used for parallel control vehicle IP/IVT injection or topical administration. Rats were dark adapted for 24 hours before they were exposed to blue light with lux intensity of ˜6-7 k for 4 hours. Right after the blue light exposure, the rats were dark adapted again for another 3 days before returning to normal room light (12-hour light/12-hour dark). Optical coherence tomography (OCT) was used to evaluate the retinal thickness change caused by blue light at 7-10 days post blue light exposure. Error bars, SEM. (FIG. 3).
Bilateral Flash Electroretinograms were recorded in SD rats using the Espion E^2 electroretinography system. On the day of ERG, Animals were dark adapted for at least 30 minutes. Their eyes were dilated with Tropicamide HCl (1%) and Ak-dilate (10%). Prior to ERG recording, the animal was anesthetized with intramuscular injection of 40 mg/ml Ketamine HCl and 12 mg/ml Xylazine HCl, and placed onto heated platform. The ground needle was placed in the skin under the arm and the reference needle was place in the skin above the head. Retinae were stimulated using 1 cd.s/m2 flash for an average of 10 traces at 0.1 Hz. Recording filter was set at 300 Hz. ERG responses were analyzed using Espion E^2, and Microsoft excel program. The b-wave amplitude was measured from the trough of the a-wave to the peak of the b-wave, and the a-wave was measured as the difference in amplitude between recording at onset and the trough of the negative deflection. Error bars, SEM. (FIGS. 4, 8, and 9).

ARPE-19 cells = test: Cell viability assay: protection of RPE cells from tBH oxidative stress; format: cell-based; conditions: for PROTECTION (%) AT 10 uM: protection of RPEs from oxidative stress (0.3 mM tBH), ARPE-19 cells
Protocol: (§3) ARPE-19 cells from ATCC were grown in DEME/F12 medium supplemented with 10% Fetal Bovine Serum (FBS) and split into 96-well plates at a density of 10,000 cells per well. Cells were incubated overnight in 0.1% FBS medium before addition of compound/drug. Stocks of compounds of interest were made at different concentrations and added to ARPE-19 cells in 0.1% FBS medium for one hour.
After one hour of compound/drug pretreatment, cells were incubated with 0.3 mM tert-butyl hydroperoxide (tBH) for 3 hours followed by three times of washing and replacement with fresh drug and medium (0.1% FBS medium) for overnight. […] Error bars, SEM. n=3.

blue light exposed rats [4] = test: Blue light study: retinal thickness by optical coherence tomography; format: in vivo, Sprague-Dawley (SD) rats; conditions: IP once per day for 3 days; OCT 7-10 days post blue light; FIG. 3
Protocol: Drug treatment was started 2 days before blue light exposure. Animals received olanzapine IP injection once per day for 3 days and the last dosing was 1 hour before blue light exposure. Rats were dark adapted for 24 hours before they were exposed to blue light with lux intensity of ˜6-7 k for 4 hours. Right after the blue light exposure, the rats were dark adapted again for another 3 days before returning to normal room light (12-hour light/12-hour dark). Optical coherence tomography (OCT) was used to evaluate the retinal thickness change caused by blue light at 7-10 days post blue light exposure. Error bars, SEM. OS=Left Eye, OD=Right Eye.
as §1
For intravitreal injection (IVT), animals received olanzapine (having the structure shown below) 1 hour before blue light exposure. For topical administration, the drug was given 24 hours (BID) and one hour (QI) before blue light exposure. Water was used for parallel control vehicle IP/IVT injection or topical administration. Rats were dark adapted for 24 hours before they were exposed to blue light with lux intensity of ˜6-7 k for 4 hours. […]

[5] = tested on: IL-8 secretion from RPE cells (ARPE-19); test: IL-8 assay: Poly I:C induced IL-8 secretion from RPE cells; format: cell-based; conditions: 1 ug/ml poly I:C, 24 hours; FIG. 1B
Protocol: as §3
After one hour of drug pretreatment, cells were incubated with 1 ug/ml polyl:C for 24 hours. The cell culture supernatant was used to measure IL-8 production with IL-8 ELISA Kit (R&D Systems, D8000C). Error bars, SEM. n=3.

blue light exposed rats [6] = test: H&E staining and immuno-histochemistry of rat ocular tissue after blue light exposure; format: in vivo, Sprague-Dawley rats; conditions: IP, 2-3 wks after blue light exposure
Protocol: as §1, §2
Sprague-Dawley male rats 2-3 weeks after blue light exposure were euthanized with CO2 and orbits enucleated. Eyes were fixed in Davidson's fixative overnight at room temperature and transferred to 70% ethanol for 24 hrs. Further tissue processing was done by serial dehydration in 80%, 95% & 100% alcohol and Propar, followed by paraffin embedding. Whole rat eyes were transversely cut in the vertical meridian proceeding from nasal to temporal side, using a Microtome (RM2255; Leica Microsystems). Using optic nerve head as the landmark, a total of 45 serial sections with 5 microns/section were collected on 15 glass slides. Slide #s 1, 5, 10 & 15 were deparaffinized and sequentially stained using hematoxylin (nucleus) and eosin (cytoplasm) as per standard protocol to compare photoreceptor/RPE lesion between experimental groups. The rest of the slides were used to determine expressions of Rhodopsin, RPE65 and GFAP using the specific antibodies by standard immune-histochemistry techniques.

Structure (SMILES): Cc1cc2c(s1)Nc1ccccc1N=C2N1CCN(C)CC1 [Olanzapine, 2-methyl-4-(4-methylpiperazin-1-yl)-10H-benzo[b]thieno[2,3-e][1,4]diazepine]
- inhibition of laser induced choroidal neovascularization [1]: significantly inhibits
- attenuation of hyperoxia induced retinal neovascularization [2]: significantly attenuates
- protection of retinal a- and b-waves (ERG) (blue light exposed rats [3]; IP once per day for 3 days, ERG 7-10 days post blue light, FIG. 4): significantly protects
- prevention of ERG alteration (blue light exposed rats [3]; intravitreal, 0.04, 0.2, or 1 ug/eye, 1 hour before blue light, ERG 7-10 days post, FIG. 8): significantly prevents
- protection of retinal a- and b-wave signals (ERG) (blue light exposed rats [3]; topical ocular dosing 24 hours (BID) and one hour before blue light, ERG 7-10 days post, FIG. 9): significantly protects
- PROTECTION (%) AT 10 uM (ARPE-19 cells): 116%
- protection of RPE cells from oxidative stress (tBH) induced apoptosis / cell death (ARPE-19 cells; tBH, RPE cells, FIGS. 1A, 2): significantly protects in a dose responsive fashion; also recorded: protect
- protection of superior retinal thickness (OCT) (blue light exposed rats [4]): significantly protects
- inhibition of Poly I:C induced IL-8 secretion from RPE cells [5]: inhibits
- protection of outer nuclear layer (H&E staining) (blue light exposed rats [6]; FIG. 5): significantly protects
- protection from retinal rhodopsin loss (immuno-histochemistry) (blue light exposed rats [6]; FIG. 6): significantly protects
- inhibition of GFAP upregulation (immuno-histochemistry) (blue light exposed rats [6]; FIG. 7): partially inhibits
- protection from RPE65 loss (immuno-histochemistry) (blue light exposed rats [6]; FIG. 7): significantly protects

Structure (SMILES): Clc1ccc2c(c1)N=C(N1CCNCC1)c1ccccc1N2 [n-desmethly clozapine, N-desmethyl clozapine]
- PROTECTION (%) AT 10 uM (ARPE-19 cells): 77%

Structure (SMILES): Cc1cc2c(s1)Nc1ccccc1N=C2N1CCNCC1 [Metabolite B, N-desmethyl olanzapine]
- PROTECTION (%) AT 10 uM (ARPE-19 cells): 129%

Structure (SMILES): Cc1cc2c(s1)Nc1ccccc1N=C2N1CC[N+](C)([O-])CC1 [Metabolite A, Olanzapine-N-oxide]
- PROTECTION (%) AT 10 uM (ARPE-19 cells): 103%
